Reference: patent EP0801071A1, “LEWIS X DERIVATIVE AND PROCESS FOR PRODUCING THE SAME” (SUMITOMO PHARMACEUTICALS COMPANY, LIMITED, priority 1994, dated 1996)

target: T1, rsE-selectin (Homo sapiens, UniProt P16581); assay: Inhibition of adhesion of HL-60 cells to plate-coated rsE-selectin (Experiment 2); type: cell-based; conditions: 50% inhibition concentration of adhesion of rsE-selectin to HL-60, from inhibition curves; medium-only well = 100%
T1 sequence (P16581 22-556 limits assumed): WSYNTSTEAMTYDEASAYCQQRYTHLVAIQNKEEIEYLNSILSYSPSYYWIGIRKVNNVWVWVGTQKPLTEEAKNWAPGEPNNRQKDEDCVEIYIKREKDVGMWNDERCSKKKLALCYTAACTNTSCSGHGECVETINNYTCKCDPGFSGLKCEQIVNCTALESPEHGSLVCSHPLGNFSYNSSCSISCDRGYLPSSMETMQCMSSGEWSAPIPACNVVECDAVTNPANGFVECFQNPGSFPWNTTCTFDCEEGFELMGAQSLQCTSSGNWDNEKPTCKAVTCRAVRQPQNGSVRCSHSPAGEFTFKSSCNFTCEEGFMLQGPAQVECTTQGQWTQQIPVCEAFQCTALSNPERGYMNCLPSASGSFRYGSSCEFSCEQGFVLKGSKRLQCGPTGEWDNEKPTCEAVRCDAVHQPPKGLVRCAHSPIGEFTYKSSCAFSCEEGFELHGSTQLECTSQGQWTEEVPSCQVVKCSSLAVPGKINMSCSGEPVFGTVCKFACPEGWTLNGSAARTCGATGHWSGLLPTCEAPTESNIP
Protocol: The DPBS solution containing rsE-selectin (3 µg/ml) was added to a 96 well plate at 50 µl/well, while wells filled with DPBS without rsE-selectin (non-specific adhesion control) were prepared on the same plate, and the plate was kept at room temperature for 3 hours. Then wells were washed 3 times with a DPBS/BSA solution at 200 µl/well, and DPBS/BSA solution was added at 200 µl/well, and the plate was kept at room temperature for 1 hour. After removing DPBS/BSA solution, a medium containing NWB or NWB plus a compound of the invention was added at 40 µl/well.
Frozen HL-60 cells were thawed promptly at 37°C, and washed with NWB cooled to 4°C 3 times by centrifugation at 1500rpm × 5 min. The cells were adjusted with NWB to 1×10^7 cells/ml, added to the plate at 20 µl/well, and the plate was kept at room temperature for 15 min.
The plate was set on a plate washer to remove nonadhesive HL-60 cells. The plate washer was set at slow mode, cycle 3 (washing 3 times), soak 0 sec., 12 rows (along vertical direction), and volume of NWB for 1 washing 200 µl/well at room temperature.
A citrate solution containing 0.1% NP-40 at room temperature was added at 50 µl/well, and the plate was kept at room temperature for 5 minutes. The substrate solution (4 mg OPDA, 4µl 30% H2O2/4 ml citrate) was added at 50 µl/well, protected from light with aluminum foil, allowed to develop color for 5 to 20 minutes, and the reaction was terminated by adding 4N-H2SO4 at 50µl/well. The substrate solution was used within 30 minutes after preparation.
The OD490 of each well was determined, and the OD490 value of the well for nonspecific adhesion was subtracted from the value of each well. The value found in a well containing only the medium was used as a control (100%) and the amount of adhesion in wells containing Compounds (15), (31), (33)-(40) or (41) of the invention was calculated by percent in terms of the values of the control. By drawing inhibition curves, 50% inhibition concentration (IC50) was determined.
The materials for the experiment were obtained from the following sources. rsE-selectin: producible by the method described in J. C. Poulson, J. Am. Chem. Soc., 117: 66-79 (1995). The sample of rsE-selectin used in the experiments was kindly supplied by the author. HL-60 : ATCC Corp. DPBS (Dulbecco Phosphate Buffered Saline) : GIBCO Corp. BSA (Bovine Serum Albumin) : Sigma Corp. HBSS (Hanks Balanced Salt Solution) : GIBCO Corp. OPDA (Ortho-phenylenediamine) : Sigma Corp. RPMI 1640 medium : GIBCO Corp. Bovine Fetal Serum : GIBCO Corp. Plate : Immulon. 2. (flat bottomed) : Dynatech Laboratories. Plate washer; Microplate Washer : Molecular Devices Corp.
A compound of the present invention was adjusted to 100mM with DPBS, and pH was adjusted to 7.1-7.4.
HL-60 was cultured in RPMI 1640 medium supplemented with 10% Bovine Fetal Serum. Using a cell freezing solution consisting of 80% RPMI 1640 medium + 10% Bovine Fetal Serum + 10% DMSO, HL-60 was frozen at 1.5 × 10^7 cells per a tube according to a conventional method, and stocked at -80°C. This was used under sterile condition.
Composition of DPBS/BSA was DPBS + 1% BSA.
Composition of NWB was HBSS + 10mM-HEPES + 0.2%glucose + 1%BSA+ 1mM-CaCl2. These two solutions are prepared under sterile condition.
The citrate solution was prepared by dissolving 2.33 g of citric acid and 9.20 g of Na2HPO4·12H2O in 500 ml of desalted water.

Going from `CC(=O)N[C@H]1[C@H]([C@H](O)[C@H](O)CO)O[C@@](O[C@H]2[C@@H](O)[C@@H](CO)O[C@@H](O[C@H]3[C@H](O[C@@H]4O[C@@H](C)[C@@H](O)[C@@H](O)[C@@H]4O)[C@@H](NC(=O)c4ccc5ccccc5c4)[C@H](OCCOCc4ccccc4)O[C@@H]3CO)[C@@H]2O)(C(=O)O)C[C@@H]1O` [Compound 33, 2-Benzyloxyethyl (5-acetamido-3,5-dideoxy-α-D-glycero-D-galacto-2-nonulopyranosylonic acid)-(2→3)-O-(β-D-galactopyranosyl)-(1→4)-O-[α-L-fucopyranosyl-(1→3)-O ]-(2-deoxy-2-naphthamido-β-D-glucopyranoside)] to `CC(=O)N[C@H]1[C@H]([C@H](O)[C@H](O)CO)O[C@@](O[C@H]2[C@@H](O)[C@@H](CO)O[C@@H](O[C@H]3[C@H](O[C@@H]4O[C@@H](C)[C@@H](O)[C@@H](O)[C@@H]4O)[C@@H](NC(=O)c4ccc5ccccc5c4)[C@H](OCCCc4ccccc4)O[C@@H]3CO)[C@@H]2O)(C(=O)O)C[C@@H]1O` [Compound 36, 3-Phenylpropyl (5-acetamido-3,5-dideoxy-α-D-glycero-D-galacto-2-nonulopyranosylonic acid)-(2→3)-O-(β-D-galactopyranosyl)-(1→4)-O-[α-L-fucopyranosyl-(1→3)-O]-(2-deoxy-2-naphthamido-β-D-glucopyranoside)], the IC50 falls from 210 µM to 110 µM (1.9-fold).

`CC(=O)N[C@H]1[C@H]([C@H](O)[C@H](O)CO)O[C@@](O[C@H]2[C@@H](O)[C@@H](CO)O[C@@H](O[C@H]3[C@H](O[C@@H]4O[C@@H](C)[C@@H](O)[C@@H](O)[C@@H]4O)[C@@H](NC(=O)c4ccc5ccccc5c4)[C@H](OCCCCCCCCCCCCO)O[C@@H]3CO)[C@@H]2O)(C(=O)O)C[C@@H]1O` [Compound 37, 12-Hydroxydodecyl (5-acetamido-3,5-dideoxy-α-D-glycero-D-galacto-2-nonulopyranosylonic acid)-(2→3)-O-(β-D-galactopyranosyl)-(1→4)-O-[α-L-fucopyranosyl-(1→3)-O]-(2-deoxy-2-naphthamido-β-D-glucopyranoside)] and `CC(=O)N[C@H]1[C@H]([C@H](O)[C@H](O)CO)O[C@@](O[C@H]2[C@@H](O)[C@@H](CO)O[C@@H](O[C@H]3[C@H](O[C@@H]4O[C@@H](C)[C@@H](O)[C@@H](O)[C@@H]4O)[C@@H](NC(=O)c4ccc5ccccc5c4)[C@H](OCCOCCOCCO)O[C@@H]3CO)[C@@H]2O)(C(=O)O)C[C@@H]1O` [Compound 34, 2-[2-(2-Hydroxyethoxy)ethoxy]ethyl (5-acetamido-3,5-dideoxy-α-D-glycero-D-galacto-2-nonulopyra nosylonic acid)-(2→3)-O-(β-D-galactopyranosyl)-(1→4)-O-[α-L-fucopyranosyl-(1→3)-O]-(2-deoxy-2-paphthamido-β-D-glucopyranoside)] are the same in IC50: 110 µM for the first, 110 µM for the second.

`COc1cc(CCCO[C@@H]2O[C@H](CO)[C@@H](O[C@@H]3O[C@H](CO)[C@H](O)[C@H](O[C@]4(C(=O)O)C[C@H](O)[C@@H](NC(C)=O)[C@H]([C@H](O)[C@H](O)CO)O4)[C@H]3O)[C@H](O[C@@H]3O[C@@H](C)[C@@H](O)[C@@H](O)[C@@H]3O)[C@H]2NC(=O)c2ccccc2)cc(OC)c1OC` [Compound 41, 3-(3,4,5-Trimethoxyphenyl)propyl (5-acetamido-3,5-dideoxy-α-D-glycero-D-galacto-2-nonulopyranosylonic acid)-(2→3)-O-(β-D-galactopyranosyl)-(1→4)-O-[α-L-fucopyranosyl-(1→3)-O]-(2-deoxy-2-benzamido-β-D-glucopyranoside)] and `COc1cc(CCCO[C@@H]2O[C@H](CO)[C@@H](O[C@@H]3O[C@H](CO)[C@H](O)[C@H](O[C@]4(C(=O)O)C[C@H](O)[C@@H](NC(C)=O)[C@H]([C@H](O)[C@H](O)CO)O4)[C@H]3O)[C@H](O[C@@H]3O[C@@H](C)[C@@H](O)[C@@H](O)[C@@H]3O)[C@H]2NC(=O)c2ccc3ccccc3c2)cc(OC)c1OC` [Compound 38, 3-(3,4,5-Trimethoxyphenyl)propyl (5-acetamido-3,5-dideoxy-α-D-glycero-D-galacto-2-nonulopyranosylonic acid)-(2→3)-O-(β-D-galactopyranosyl)-(1→4)-O-[α-L-fucopyranosyl-(1→3)-O]-(2-deoxy-2-naphthamido-β-D-glucopyra noside)] are within 1.5-fold of each other in IC50: 110 µM for the first, 150 µM for the second.

Compared with `CCCCCCCCCOc1cc(CCCO[C@@H]2O[C@H](CO)[C@@H](O[C@@H]3O[C@H](CO)[C@H](O)[C@H](O[C@]4(C(=O)O)C[C@H](O)[C@@H](NC(C)=O)[C@H]([C@H](O)[C@H](O)CO)O4)[C@H]3O)[C@H](O[C@@H]3O[C@@H](C)[C@@H](O)[C@@H](O)[C@@H]3O)[C@H]2NC(=O)c2ccc3ccccc3c2)cc(OC)c1OC` [Compound 39, 3-(4,5-Dimethoxy-3-nonyloxyphenyl)propyl (5-acetamido-3,5-dideoxy-α-D-glycero-D-galacto-2-nonulopyra nosylonic acid)-(2→3)-O-(β-D-galactopyranosyl)-(1→4) -O-[α-L-fucopyranosyl-(1→3)-O]-(2-deoxy-2-naphthamido-β-D-g lucopyranoside)], `CCCCCCCCCOc1c(OC)cc(CCCO[C@@H]2O[C@H](CO)[C@@H](O[C@@H]3O[C@H](CO)[C@H](O)[C@H](O[C@]4(C(=O)O)C[C@H](O)[C@@H](NC(C)=O)[C@H]([C@H](O)[C@H](O)CO)O4)[C@H]3O)[C@H](O[C@@H]3O[C@@H](C)[C@@H](O)[C@@H](O)[C@@H]3O)[C@H]2NC(=O)c2ccc3ccccc3c2)cc1OC` [Compound 40, 3-(3,5-Dimethoxy-4-nonyloxyphenyl)propyl (5-acetamido-3,5-dideoxy-α-D-glycero-D-galacto-2-nonulopyra nosylonic acid)-(2→3)-O-(β-D-galactopyranosyl)-(1→4)-O-[α-L-fucopyranosyl-(1→3)-O]-(2-deoxy-2-naphthamido-β-D-glucopyranoside)] is 2.1-fold lower in IC50: 150 µM for the first, 70 µM for the second.
